Data as given in patent publication US5013850A, “4-ethyl and 4-ethenyl-5-hydroxy-2(5H)-furanones substituted on alpha carbon of the ethyl or ethenyl side chain with a long chain alkyl group and on the beta carbon with a polar group, as anti-inflammatory agents” (Allergan, Inc., priority 1990, dated 1991).

Target: bee venom phospholipase A2 (Apis mellifera, UniProt P00630)
Assay: biochemical
Conditions: read-out: IC50, Phospholipase A2 Assay (50% inhibition of bee venom phospholipase A2)

Sequence of bee venom phospholipase A2 (P00630 34-167 limits assumed): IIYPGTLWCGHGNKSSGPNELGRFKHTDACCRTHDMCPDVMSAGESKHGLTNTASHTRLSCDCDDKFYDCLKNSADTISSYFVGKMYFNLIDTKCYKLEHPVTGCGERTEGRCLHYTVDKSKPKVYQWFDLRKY

SMILES	IC50 [nM]
CCCCCCCCCCCCC(CC(=O)C(F)(F)F)C1=CC(=O)OC1O (centres unmarked) [Compound 9, 4-[1-(3,3,3-Trifluoro-2-oxo)propyl]tridecyl-5-hydroxy-2(5H)-furanone]	420
CCCCCCCCCCCCC(=CC(=O)C(F)(F)F)C1=CC(=O)OC1O (centres unmarked) [Compound 23, (E),(Z)-4-[(1-Dodecyl-3-oxo-4,4,4-trifluoro)-1-butenyl]-5-hydroxy-2(5H)-furanone]	40
CCCCCCCCCCCCC(CC(C)(C)O)C1=CC(=O)OC1O (centres unmarked) [Compound 10, 4-[1-(2-Hydroxy-2-methylpropyl)tridecyl]-5-hydroxy-2(5H)-furanone]	> 1000
CCCCCCCCCCCCC(CC(C)=O)C1=CC(=O)OC1O (centres unmarked) [Compound 8, 4-[1-(2-oxopropyl)tridecyl]-5-hydroxy-2(5H)-furanone]	90
CCCCCCCCCCCCC(=CP(=O)(OCC)OCC)C1=CC(=O)OC1O (centres unmarked) [Compound 24, 4-[(1-Dodecyl-2-diethylphosphonyl)-1-ethenyl]-5-hydroxy-2(5H)-furanone]	80
CCCCCCCCCCCCC(C1=CC(=O)OC1O)C(C(=O)OC)C(=O)OC (centres unmarked) [Compound 11, 4-[-(1,1-Bis(carbomethoxy)methyl)tridecyl]-5-hydroxy-2(5H)-furanone]	80
CCCCCCCCCCCCC(CC(=O)OCC)C1=CC(=O)OC1O (centres unmarked) [Compound 7, 4-[1-(Ethoxycarbonylmethyl)tridecyl]-5-hydroxy-2(5H)-furanone]	260
CCCCCCCCCCCCC(CC(=O)O)C1=CC(=O)OC1O (centres unmarked) [Compound 12, 4-[1-(Carboxymethyl)tridecyl]-5-hydroxy-2(5H)-furanone]	130
CCCCCCCCCCCCC(CP(=O)(OCC)OCC)C1=CC(=O)OC1O (centres unmarked) [Compound 13, 4-[1-(diethylphosphonyl)methyl]tridecyl-5-hydroxy-2(5H)-furanone]	100
CC(=CCCC1=CCC(C2=CC(=O)OC2O)OC1O)CCC1=C(C)CCCC1(C)C (centres unmarked) [Compound 1]	30

Tested on: not given
Assay: not given
Conditions: U.S. Pat. No. 4,447,445; European Patent Application No. 0133376; cited from earlier work

SMILES	biological activity
CC(=CCCC(C=O)=CCC(O)C1=CC(=O)OC1O)CCC1=C(C)CCCC1(C)C (centres unmarked) [Compound 2]	anti-inflammatory inflammatory activity
CC(=CCCC(C=O)=CC=CC1=CC(=O)OC1O)CCC1=C(C)CCCC1(C)C (centres unmarked) [Compound 3]	anti-inflammatory inflammatory activity
CC(=CCCC1=CCC(C2=CC(=O)OC2O)OC1O)CCC1=C(C)CCCC1(C)C (centres unmarked) [Compound 1]	anti-inflammatory, immunosuppressive and analgesic properties

Tested on: phosphoinositide-specific phospholipase C
Assay: not given
Conditions: Bennett et al, Molecular Pharmacology 32:587-593 (1987); cited from earlier work

SMILES	inhibition of phosphoinositide-specific phospholipase C
CC(=CCCC1=CCC(C2=CC(=O)OC2O)OC1O)CCC1=C(C)CCCC1(C)C (centres unmarked) [Compound 1]	This activity has been reported for manoalide
